# Experimental data: article PMC5218480 (PLoS ONE, 2017)
# Tested on: MV-4-11 cells
# Assay: Gene expression microarray analysis (Affymetrix PrimeView) and GSEA
# Format: cell-based, human
# Set-up: RFU PODN (11730768_x_at) / Fold change /veh PODN (11730768_x_at) / RFU LINC00158 (11744669_a_at) / Fold change /veh LINC00158 (11744669_a_at) / RFU DUSP10 (11751237_a_at) / Fold change /veh DUSP10 (11751237_a_at) / RFU ID3 (11757404_x_at) / Fold change /veh ID3 (11757404_x_at) / RFU PLEKHG5 (11737974_s_at) / Fold change /veh PLEKHG5 (11737974_s_at) / RFU LRRC4B (11730491_at) / Fold change /veh LRRC4B (11730491_at) / RFU GIMAP4 (11747438_a_at) / Fold change /veh GIMAP4 (11747438_a_at) / RFU KRT8 (11758183_x_at) / Fold change /veh KRT8 (11758183_x_at) / RFU CNN1 (11734310_a_at) / Fold change /veh CNN1 (11734310_a_at) / RFU VPS37D (11726825_at) / Fold change /veh VPS37D (11726825_at) / RFU C10orf10 (11716522_x_at) / Fold change /veh C10orf10 (11716522_x_at) / RFU KIR2DL2 /// KIR2DL4 /// KIR2DL5A /// KIR2DL5B /// KIR2DS1 /// KIR2DS2 /// KIR2DS3 /// KIR2DS4 /// KIR3DL3 /// KIR3DL3 /// KIR3DS1 (11738374_at) / Fold change /veh KIR2DL2 /// KIR2DL4 /// KIR2DL5A /// KIR2DL5B /// KIR2DS1 /// KIR2DS2 /// KIR2DS3 /// KIR2DS4 /// KIR3DL3 /// KIR3DL3 /// KIR3DS1 (11738374_at) / RFU C1QL1 (11718748_at) / Fold change /veh C1QL1 (11718748_at) / RFU TMPRSS4 (11747572_a_at) / Fold change /veh TMPRSS4 (11747572_a_at) / RFU HAMP (11756126_x_at) / Fold change /veh HAMP (11756126_x_at) / RFU RNFT2 (11725882_a_at) / Fold change /veh RNFT2 (11725882_a_at) / RFU NR4A2 (11747474_a_at) / Fold change /veh NR4A2 (11747474_a_at) / RFU ABCC12 (11746883_a_at) / Fold change /veh ABCC12 (11746883_a_at) / RFU TMEM136 (11760407_x_at) / Fold change /veh TMEM136 (11760407_x_at) / RFU CLDN22 /// WWC2 (11732394_at) / Fold change /veh CLDN22 /// WWC2 (11732394_at) / RFU HLA-DPB1 (11760878_x_at) / Fold change /veh HLA-DPB1 (11760878_x_at) / RFU SPINT1 (11716480_a_at) / Fold change /veh SPINT1 (11716480_a_at) / RFU GAP43 (11754022_s_at) / Fold change /veh GAP43 (11754022_s_at) / RFU A4GNT (11735810_at) / Fold change /veh A4GNT (11735810_at) / RFU PRB3 (11715151_x_at) / Fold change /veh PRB3 (11715151_x_at) / RFU TUBB4B (11761932_at) / Fold change /veh TUBB4B (11761932_at) / RFU CAPN14 (11732068_a_at) / Fold change /veh CAPN14 (11732068_a_at) / RFU TMCC2 (11721928_a_at) / Fold change /veh TMCC2 (11721928_a_at) / RFU IRGQ (11745062_a_at) / Fold change /veh IRGQ (11745062_a_at) / RFU FAM174B (11720279_a_at) / Fold change /veh FAM174B (11720279_a_at) / RFU TMPRSS4 (11748680_a_at) / Fold change /veh TMPRSS4 (11748680_a_at) / RFU FAM212B (11763350_a_at) / Fold change /veh FAM212B (11763350_a_at) / RFU PLEKHG5 (11743358_a_at) / Fold change /veh PLEKHG5 (11743358_a_at) / RFU ZSCAN30 (11745921_a_at) / Fold change /veh ZSCAN30 (11745921_a_at) / RFU CMKLR1 (11741424_a_at) / Fold change /veh CMKLR1 (11741424_a_at) / RFU LOC101060620 /// MAPK8IP1 (11723275_at) / Fold change /veh LOC101060620 /// MAPK8IP1 (11723275_at) / RFU SPTSSB (11747773_x_at) / Fold change /veh SPTSSB (11747773_x_at) / RFU PRSS12 (11739890_at) / Fold change /veh PRSS12 (11739890_at) / RFU BIN1 (11741810_x_at) / Fold change /veh BIN1 (11741810_x_at) / RFU WNT11 (11732464_a_at) / Fold change /veh WNT11 (11732464_a_at) / RFU C10orf10 (11716521_a_at) / Fold change /veh C10orf10 (11716521_a_at) / RFU C5orf56 (11738089_at) / Fold change /veh C5orf56 (11738089_at) / RFU CYB561 (11721691_x_at) / Fold change /veh CYB561 (11721691_x_at) / RFU ANKRD19P (11752326_a_at) / Fold change /veh ANKRD19P (11752326_a_at) / RFU OR2T12 /// OR2T33 /// OR2T8 (11738714_s_at) / Fold change /veh OR2T12 /// OR2T33 /// OR2T8 (11738714_s_at) / RFU VCAN (11748164_a_at) / Fold change /veh VCAN (11748164_a_at) / RFU JSRP1 (11732532_at) / Fold change /veh JSRP1 (11732532_at) / RFU KRTAP10-11 (11738290_x_at) / Fold change /veh KRTAP10-11 (11738290_x_at) / RFU MYO3A (11730013_a_at) / Fold change /veh MYO3A (11730013_a_at) / RFU EBF3 (11725865_a_at) / Fold change /veh EBF3 (11725865_a_at) / RFU CAMK2N1 (11719241_x_at) / Fold change /veh CAMK2N1 (11719241_x_at) / RFU C5orf56 (11738088_a_at) / Fold change /veh C5orf56 (11738088_a_at) / RFU OLFML3 (11715873_a_at) / Fold change /veh OLFML3 (11715873_a_at) / RFU LOC100653217 /// NTM (11731650_a_at) / Fold change /veh LOC100653217 /// NTM (11731650_a_at) / RFU MAPK11 (11762145_a_at) / Fold change /veh MAPK11 (11762145_a_at) / RFU FIZ1 (11724087_x_at) / Fold change /veh FIZ1 (11724087_x_at) / RFU OASL (11726364_x_at) / Fold change /veh OASL (11726364_x_at) / RFU SOX15 (11748057_x_at) / Fold change /veh SOX15 (11748057_x_at) / RFU CD79A (11719716_a_at) / Fold change /veh CD79A (11719716_a_at) / RFU HIST1H1D (11736915_at) / Fold change /veh HIST1H1D (11736915_at) / RFU CASKIN2 (11723855_a_at) / Fold change /veh CASKIN2 (11723855_a_at) / RFU LOC730098 (11760151_x_at) / Fold change /veh LOC730098 (11760151_x_at) / RFU OR4N2 (11742367_at) / Fold change /veh OR4N2 (11742367_at) / RFU PRRT2 (11749266_a_at) / Fold change /veh PRRT2 (11749266_a_at) / RFU SNX32 (11753110_a_at) / Fold change /veh SNX32 (11753110_a_at) / RFU CDHR5 (11726645_a_at) / Fold change /veh CDHR5 (11726645_a_at) / RFU RCAN1 (11760418_a_at) / Fold change /veh RCAN1 (11760418_a_at) / RFU FAM167A (11723789_a_at) / Fold change /veh FAM167A (11723789_a_at) / RFU FAM26E (11764081_at) / Fold change /veh FAM26E (11764081_at) / RFU ISYNA1 (11749810_s_at) / Fold change /veh ISYNA1 (11749810_s_at) / RFU ACY1 (11761880_at) / Fold change /veh ACY1 (11761880_at) / RFU 11764098_at / Fold change /veh 11764098_at / RFU SAMD14 (11745864_x_at) / Fold change /veh SAMD14 (11745864_x_at) / RFU NPB (11741838_a_at) / Fold change /veh NPB (11741838_a_at) / RFU TMPRSS6 (11731388_a_at) / Fold change /veh TMPRSS6 (11731388_a_at) / RFU KRTAP10-2 (11738614_at) / Fold change /veh KRTAP10-2 (11738614_at) / RFU ARHGAP8 /// PRR5-ARHGAP8 (11727945_x_at) / Fold change /veh ARHGAP8 /// PRR5-ARHGAP8 (11727945_x_at) / RFU KRTAP5-7 /// NADSYN1 (11734609_at) / Fold change /veh KRTAP5-7 /// NADSYN1 (11734609_at) / RFU RASL12 (11751679_a_at) / Fold change /veh RASL12 (11751679_a_at) / RFU CDKN2B (11736163_a_at) / Fold change /veh CDKN2B (11736163_a_at) / RFU PRF1 (11729649_at) / Fold change /veh PRF1 (11729649_at) / RFU, ZNF638 /// ZNF638-IT1 / Fold change vs veh, ZNF638 /// ZNF638-IT1 / RFU, PANK3 / Fold change vs veh, PANK3 / RFU, SH3YL1 / Fold change vs veh, SH3YL1 / RFU, ZEB2 / Fold change vs veh, ZEB2 / RFU, NRIP1 / Fold change vs veh, NRIP1 / RFU, PTTG1IP / Fold change vs veh, PTTG1IP / RFU, CAPN2 / Fold change vs veh, CAPN2 / RFU, MED14 / Fold change vs veh, MED14 / RFU, SNORA58 / Fold change vs veh, SNORA58 / RFU, C1orf63 / Fold change vs veh, C1orf63 / RFU, LRRFIP1 / Fold change vs veh, LRRFIP1 / RFU, NDUFAF7 / Fold change vs veh, NDUFAF7 / RFU, SLC12A2 / Fold change vs veh, SLC12A2 / RFU, IBTK / Fold change vs veh, IBTK / RFU, ESF1 / Fold change vs veh, ESF1 / Fold change vs veh, TMEM50B / RFU, TAOK1 / Fold change vs veh, TAOK1 / RFU, ACBD3 / Fold change vs veh, ACBD3 / RFU, TMA16 / Fold change vs veh, TMA16 / RFU, RWDD3 / Fold change vs veh, RWDD3 / RFU, BCAT1 / Fold change vs veh, BCAT1 / RFU, EDEM3 / Fold change vs veh, EDEM3 / RFU, TMEM33 / Fold change vs veh, TMEM33 / RFU, WDR75 / Fold change vs veh, WDR75 / RFU, AHCTF1 / Fold change vs veh, AHCTF1 / RFU, TFRC / Fold change vs veh, TFRC / RFU, ZDHHC17 / Fold change vs veh, ZDHHC17 / RFU, NOM1 / Fold change vs veh, NOM1 / RFU, ARL8B / Fold change vs veh, ARL8B / RFU, ZBTB11 / Fold change vs veh, ZBTB11 / RFU, TAMM41 / Fold change vs veh, TAMM41 / RFU, KIAA1704 /// LOC100996395 / Fold change vs veh, KIAA1704 /// LOC100996395 / RFU, ING1 / Fold change vs veh, ING1 / RFU, TRMT61B / Fold change vs veh, TRMT61B / RFU, FUBP3 / Fold change vs veh, FUBP3 / RFU, TP53 / Fold change vs veh, TP53 / RFU, TNKS2 / Fold change vs veh, TNKS2 / RFU, ZFP14 / Fold change vs veh, ZFP14 / RFU, ACTR2 / Fold change vs veh, ACTR2 / RFU, PPP3R1 / Fold change vs veh, PPP3R1 / RFU, PIK3R1 / Fold change vs veh, PIK3R1 / RFU, HNRNPA1 / Fold change vs veh, HNRNPA1 / RFU, RNF170 / Fold change vs veh, RNF170 / RFU, ZNF28 / Fold change vs veh, ZNF28 / RFU, RNGTT / Fold change vs veh, RNGTT / RFU, OGT / Fold change vs veh, OGT / RFU, BRD1 / Fold change vs veh, BRD1 / RFU, MARS / Fold change vs veh, MARS / RFU, ZNF655 / Fold change vs veh, ZNF655 / RFU, FAHD1 / Fold change vs veh, FAHD1 / RFU, BDP1 / Fold change vs veh, BDP1 / RFU, LRRCC1 / Fold change vs veh, LRRCC1 / RFU, ARID1A / Fold change vs veh, ARID1A / RFU, ZNF146 / Fold change vs veh, ZNF146 / RFU, ZNF330 / Fold change vs veh, ZNF330 / RFU, GPN3 / Fold change vs veh, GPN3 / RFU, C9orf123 / Fold change vs veh, C9orf123 / RFU, N4BP2L2 / Fold change vs veh, N4BP2L2 / RFU, ARFIP1 / Fold change vs veh, ARFIP1 / RFU, FAM179B / Fold change vs veh, FAM179B / RFU, BCL10 / Fold change vs veh, BCL10 / RFU, UHRF1BP1L / Fold change vs veh, UHRF1BP1L / RFU, BET1 / Fold change vs veh, BET1 / RFU, CNOT2 / Fold change vs veh, CNOT2 / RFU, ZNF268 / Fold change vs veh, ZNF268 / Fold change vs veh, ZNF507 / RFU, DGCR2 / Fold change vs veh, DGCR2 / RFU, WDSUB1 / Fold change vs veh, WDSUB1 / Fold change vs veh, HSP90B1 /// MIR3652 / RFU, ADSS / Fold change vs veh, ADSS / RFU, GK / Fold change vs veh, GK / RFU, ZNF148 / Fold change vs veh, ZNF148 / RFU, TAF9 / Fold change vs veh, TAF9 / RFU, SLC1A5 / Fold change vs veh, SLC1A5 / RFU, SLMO2 / Fold change vs veh, SLMO2 / RFU, ABCC4 / Fold change vs veh, ABCC4 / RFU, LOC101060439 /// RAP1B / Fold change vs veh, LOC101060439 /// RAP1B / RFU, RFX7 / Fold change vs veh, RFX7 / RFU, GTPBP10 / Fold change vs veh, GTPBP10 / RFU, CNEP1R1 / Fold change vs veh, CNEP1R1 / RFU, BIVM-ERCC5 /// ERCC5 / Fold change vs veh, BIVM-ERCC5 /// ERCC5 / RFU, ILF3 / Fold change vs veh, ILF3 / RFU 11762660_at / Fold change /veh 11762660_at / RFU VCAN (11757783_s_at) / Fold change /veh VCAN (11757783_s_at) / RFU DDX43 (11728927_at) / Fold change /veh DDX43 (11728927_at) / RFU KRT8 (11758188_x_at) / Fold change /veh KRT8 (11758188_x_at) / RFU NKD1 (11759106_at) / Fold change /veh NKD1 (11759106_at) / RFU SRD5A1 (11742802_a_at) / Fold change /veh SRD5A1 (11742802_a_at) / RFU TPSAB1 /// TPSB2 (11721975_s_at) / Fold change /veh TPSAB1 /// TPSB2 (11721975_s_at) / RFU GSTM3 (11746129_a_at) / Fold change /veh GSTM3 (11746129_a_at) / RFU IL23R (11737362_x_at) / Fold change /veh IL23R (11737362_x_at) / RFU TMEM51 (11727254_a_at) / Fold change /veh TMEM51 (11727254_a_at) / RFU PIWIL2 (11732686_x_at) / Fold change /veh PIWIL2 (11732686_x_at) / RFU ORM1 (11744905_x_at) / Fold change /veh ORM1 (11744905_x_at) / RFU CCDC152 (11743942_at) / Fold change /veh CCDC152 (11743942_at) / RFU ECM1 (11717891_a_at) / Fold change /veh ECM1 (11717891_a_at) / RFU IL23R (11748794_a_at) / Fold change /veh IL23R (11748794_a_at) / RFU TNFAIP8L3 (11732012_x_at) / Fold change /veh TNFAIP8L3 (11732012_x_at) / RFU MBOAT4 (11741988_at) / Fold change /veh MBOAT4 (11741988_at) / RFU 11764193_at / Fold change /veh 11764193_at / RFU TMEM53 (11763286_at) / Fold change /veh TMEM53 (11763286_at) / RFU MAGEB2 (11727129_at) / Fold change /veh MAGEB2 (11727129_at) / RFU TMEM200A (11744735_a_at) / Fold change /veh TMEM200A (11744735_a_at) / RFU CCDC152 (11751479_a_at) / Fold change /veh CCDC152 (11751479_a_at) / RFU FAM211A (11726209_a_at) / Fold change /veh FAM211A (11726209_a_at) / RFU RGS16 (11746705_a_at) / Fold change /veh RGS16 (11746705_a_at) / RFU VCAN (11755009_s_at) / Fold change /veh VCAN (11755009_s_at) / RFU RHOB (11743442_s_at) / Fold change /veh RHOB (11743442_s_at) / RFU RGS16 (11720943_a_at) / Fold change /veh RGS16 (11720943_a_at) / RFU RGS16 (11720944_at) / Fold change /veh RGS16 (11720944_at) / RFU, VPS4B / Fold change vs veh, VPS4B / RFU, CREB1 / Fold change vs veh, CREB1 / RFU, DNAJC13 / Fold change vs veh, DNAJC13 / RFU, GNAQ / Fold change vs veh, GNAQ / RFU, CDK5R1 / Fold change vs veh, CDK5R1 / RFU, ZRANB3 / Fold change vs veh, ZRANB3 / RFU, CUL4A / Fold change vs veh, CUL4A / RFU, CCNY / Fold change vs veh, CCNY / RFU, UFL1 / Fold change vs veh, UFL1 / RFU, COG3 / Fold change vs veh, COG3 / RFU, DIAPH2 / Fold change vs veh, DIAPH2 / RFU, SKA2 / Fold change vs veh, SKA2 / RFU, AFF3 / Fold change vs veh, AFF3 / RFU, LMF1 / Fold change vs veh, LMF1 / RFU, IPO11 / Fold change vs veh, IPO11 / RFU, DFFB / Fold change vs veh, DFFB / RFU, FOXP1 / Fold change vs veh, FOXP1 / RFU, CARD8 / Fold change vs veh, CARD8 / RFU, STRN3 / Fold change vs veh, STRN3 / RFU, ADK / Fold change vs veh, ADK / RFU, RASSF2 / Fold change vs veh, RASSF2 / RFU, WIPF1 / Fold change vs veh, WIPF1 / RFU, LARP1B / Fold change vs veh, LARP1B / RFU, RASA1 / Fold change vs veh, RASA1 / RFU, RB1 / Fold change vs veh, RB1 / RFU, PPFIA1 / Fold change vs veh, PPFIA1 / RFU, MAT2A / Fold change vs veh, MAT2A / RFU, CCT5 / Fold change vs veh, CCT5 / RFU, WDR92 / Fold change vs veh, WDR92 / RFU, CUX1 / Fold change vs veh, CUX1 / RFU, TTC7A / Fold change vs veh, TTC7A / RFU, TMEM135 / Fold change vs veh, TMEM135 / RFU, DEPTOR / Fold change vs veh, DEPTOR / RFU, CPM / Fold change vs veh, CPM / RFU, DNAJB6 / Fold change vs veh, DNAJB6 / RFU, CACNA2D3 / Fold change vs veh, CACNA2D3 / RFU, DTX4 / Fold change vs veh, DTX4 / RFU, TFCP2 / Fold change vs veh, TFCP2 / RFU, GMCL1 /// GMCL1P1 / Fold change vs veh, GMCL1 /// GMCL1P1 / RFU, AEBP2 / Fold change vs veh, AEBP2 / RFU, SNHG1 /// SNORD22 /// SNORD25 /// SNORD26 /// SNORD27 /// SNORD28 /// SNORD29 /// SNORD31 / Fold change vs veh, SNHG1 /// SNORD22 /// SNORD25 /// SNORD26 /// SNORD27 /// SNORD28 /// SNORD29 /// SNORD31 / Fold change (Aza/veh), C12orf56 (ProbeSet 11735607_a_at) / Fold change (ACY-1035/veh), C12orf56 (ProbeSet 11735607_a_at) / Fold change (Aza/veh), FGFR1OP (ProbeSet 11751329_s_at) / Fold change (ACY-1035/veh), FGFR1OP (ProbeSet 11751329_s_at) / Fold change (Aza/veh), VPS36 (ProbeSet 11739960_a_at) / Fold change (ACY-1035/veh), VPS36 (ProbeSet 11739960_a_at) / RFU SYPL1 (11715823_x_at) / Fold change /veh SYPL1 (11715823_x_at) / RFU IGFBP7 (11715501_s_at) / Fold change /veh IGFBP7 (11715501_s_at) / RFU REEP3 (11722064_at) / Fold change /veh REEP3 (11722064_at) / RFU IGLL1 (11728026_x_at) / Fold change /veh IGLL1 (11728026_x_at): dose or concentration left out as unconfirmed
# Conditions: MV-4-11 cells, 48 hours
smiles,measurement,value
Nc1ccc(-c2cccs2)cc1NC(=O)c1ccc2c(c1)cc(C1CC1)n2CCN1CCOCC1 [ACY-1035],Fold change /veh KIR2DL2 /// KIR2DL4 /// KIR2DL5A /// KIR2DL5B /// KIR2DS1 /// KIR2DS2 /// KIR2DS3 /// KIR2DS4 /// KIR3DL3 /// KIR3DL3 /// KIR3DS1 (11738374_at),0.96
